Reference: patent US20250288557A1, “FORMULATION AND METHOD FOR TREATMENT OF INFECTIONS” (priority 2022, published 2025)
Where two headings read alike, the source gives them in different places.

Test system: Piglets
Conditions: for Mortality (%): (number of dead pigs/number of pigs enrolled)x100; for Clinical observations (%): percentage of pigs expressing clinical signs suggestive of product(s) side-effects: po
Description: Safety Study: Studies for safety were conducted. The trials assessed the active ingredients individually and according to various combinations.
Example Safety Study: The following provides the procedure(s) and data collected from the exemplary safety study.
Six different sets of pigs were tested with six different formulations: • 1. […] Statin or Atorvastatin (1.6 mg/dose) • 3. Indomethacin (3.64 mg/dose) • 4. Doxycycline (6 mg/dose) • 5. Cimetidine (18 mg/dose) • 6. Positive control (compounded formulation of Atorvastatin, Indomethacin, […], Doxycycline, and Cimetidine)
Methods: A sow farm negative for Porcine Reproductive and Respiratory Syndrome virus (PRRSv) and Mycoplasma hyopneumoniae and experiencing little to no piglet enteric health challenges was enrolled for the study. Piglets (12-14 days of age) orally received one of the six formulations identified above. When receiving a formulation, 1 mL of assigned treatment was obtained and provided to the Piglets.
At d0 and d1, pen-level fecal consistency was studied. At d1, piglet mortality was recorded.
Fecal scores: Average fecal score (pen-level). Fecal scours 0, 1, 2, and 3 corresponded to normal, pasty, semi-liquid, and liquid feces, respectively, with scores of ≥2 corresponding to diarrhea.
Mortality: %=(number of dead pigs/number of pigs enrolled)×100.

CN/C(=N/CCSCc1nc[nH]c1C)NC#N [Cimetidine]
Mortality (%) (d 0): 0.0% | Mortality (%) (d 1): 0.0% | Fecal scores: average fecal score (pen-level) (pig, in vivo): 0.0 | Palatability (%): percentage of pigs expressing clinical signs suggestive of poor palatability (pig, in vivo): 0.0% | Fecal scores: average fecal score (pen-level) (pig, in vivo, 1 day): 0.0 | Clinical observations (%): percentage of pigs expressing clinical signs suggestive of product(s) side-effects (pig, in vivo, 0 day): 0.0% | Clinical observations (%): percentage of pigs expressing clinical signs suggestive of product(s) side-effects (pig, in vivo, 24 h): 0.0%

C[C@H]1c2cccc(O)c2C(=O)C2=C(O)[C@]3(O)C(=O)C(C(N)=O)=C(O)[C@@H](N(C)C)[C@@H]3[C@@H](O)[C@@H]21 [Doxycycline]
Mortality (%) (d 0): 0.0% | Mortality (%) (d 1): 0.0% | Fecal scores: average fecal score (pen-level) (pig, in vivo): 0.0 | Palatability (%): percentage of pigs expressing clinical signs suggestive of poor palatability (pig, in vivo): 0.0% | Fecal scores: average fecal score (pen-level) (pig, in vivo, 1 day): 0.0 | Clinical observations (%): percentage of pigs expressing clinical signs suggestive of product(s) side-effects (pig, in vivo, 0 day): 0.0% | Clinical observations (%): percentage of pigs expressing clinical signs suggestive of product(s) side-effects (pig, in vivo, 24 h): 0.0%

CC(C)c1c(C(=O)Nc2ccccc2)c(-c2ccccc2)c(-c2ccc(F)cc2)n1CC[C@@H](O)C[C@@H](O)CC(=O)O [Atorvastatin]
Mortality (%) (d 0): 0.0% | Mortality (%) (d 1): 0.0% | Fecal score of a single litter (pig, in vivo): 1 | Fecal scores: average fecal score (pen-level) (pig, in vivo): 0.5 | Palatability (%): percentage of pigs expressing clinical signs suggestive of poor palatability (pig, in vivo): 0.0% | Fecal scores: average fecal score (pen-level) (pig, in vivo, 1 day): 0.0 | Clinical observations (%): percentage of pigs expressing clinical signs suggestive of product(s) side-effects (pig, in vivo, 0 day): 0.0% | Clinical observations (%): percentage of pigs expressing clinical signs suggestive of product(s) side-effects (pig, in vivo, 24 h): 0.0%

COc1ccc2c(c1)c(CC(=O)O)c(C)n2C(=O)c1ccc(Cl)cc1 [Indomethacin]
Mortality (%) (d 0): 0.0% | Mortality (%) (d 1): 0.0% | Fecal scores: average fecal score (pen-level) (pig, in vivo): 0.0 | Palatability (%): percentage of pigs expressing clinical signs suggestive of poor palatability (pig, in vivo): 0.0% | Fecal scores: average fecal score (pen-level) (pig, in vivo, 1 day): 0.0 | Clinical observations (%): percentage of pigs expressing clinical signs suggestive of product(s) side-effects (pig, in vivo, 0 day): 0.0% | Clinical observations (%): percentage of pigs expressing clinical signs suggestive of product(s) side-effects (pig, in vivo, 24 h): 0.0%
